Test system: Pyrenophora teres
Assay: Field test on barley, fungal infection by Pyrenophora teres
Assay type: in vivo, Hordeum vulgare (spring)
Protocol: The test was conducted on a variety of barley Hordeum vulgare (spring). As such, six applications of the active substance solution was made. The study was conducted on fields of about 25 m^2 in quadruplicate for each combination tested. […] (with the addition of commercial adjuvant) followed by treatment with common fungicide (tebukonazole in formulation containing 250 g of active substance to be applied per 1 ha) in reducing infection of fungi Pyrenophora teres in barley (Hordeum vulgare (spring)) was performed. […] Six applications of the active substance BTHWA solution were made. As a control, one application of fungicide was performed at the time as indicated on the product label. The study was conducted on fields of about 25 m^2 in quadruplicate for each combination tested. […] The fungicide was applied in an amount of 33% its recommended dose (83 g/ha). Six applications of the active substance BTHWA solution were made. As a control, one application of fungicide was performed at the time as indicated on the product label. The study was conducted on fields of about 25 m^2 in quadruplicate for each combination tested.

[1] = Example 29: tebukonazole 1x 250 g/ha alone, or BTHWA 20 mg/L (six applications) + tebukonazole 1x 125 g/ha
[2] = Example 30: tebukonazole 1x 250 g/ha alone, or BTHWA 20 mg/L (six applications) + tebukonazole 1x, table prints 125 g/ha, text 83 g/ha

In the case of `CC(C)(C)C(O)(CCc1ccc(Cl)cc1)Cn1cncn1` (racemic) [tebukonazole, (RS)-1-(4-chlorophenyl)-4,4-dimethyl-3-(1H, 1,2,4-triazol-1-ylmethyl)pentan-3-ol], the “% efficacy” value [1] is reported as 90.87%, the “% of infection” value [1] is reported as 6.00% and the “% efficacy” value [2] is reported as 90.87%. For the same molecule, the “% of infection” value [2] was 6.00%.
